According to patent publication US20110165173A1, “THERAPEUTIC AGENT AND DETECTION REAGENT FOR ARTERIOSCLEROTIC DISEASE WHICH TARGETS FOR SALUSIN” (PROTEINEXPRESS CO., LTD., priority 2007, published 2011):

How the values were obtained:
ACAT1 = ACAT1 expression by macrophages of treated apoE-deficient mice (Western blotting); format: in vivo; conditions: four weeks, P<0.05
Procedure: (§1) 13-week-old male apoE-deficient mice (72 mice) were divided into the following 6 groups: (i) physiological salt saline (control); (ii) salusin-α (0.6 nmol/kg/h); (iii) salusin-β (0.6 nmol/kg/h); (iv) salusin-α (0.6 nmol/kg/h)+anti-salusin-α serum (1.4 μg/kg/h); (v) salusin-β (0.6 nmol/kg/h)+anti-salusin-β serum (1.4 μg/kg/h); and (vi) anti-salusin-β serum (1.4 μg/kg/h). The mice were subjected to continuous subcutaneous administration with the use of an osmotic mini-pump for 4 to 8 weeks. The osmotic mini-pump and the solution contained therein were changed every week.
(§2) Macrophages were collected as in the experiment in (1), and the protein expression of the gene involved in foaming of macrophages (i.e., scavenger receptors CD36 and SR-A capable of recognizing oxidized LDL, intracellular cholesterol esterification enzyme ACAT1, and ABCA1, ABCG1, and SR-BI, which are involved in cholesterol efflux) was analyzed by Western blotting. For the internal standard of the macrophage function, β-actin expression was also examined. For quantification of the band concentration, Analyzer (ATTO Corporation, Tokyo) was used.

SR-A = SR-A expression by macrophages of treated apoE-deficient mice (Western blotting); format: in vivo; conditions: four weeks
Procedure: as §1, §2

[1] = tested on: ACAT-1 protein expression; assay: ACAT-1 protein expression in human monocyte-derived macrophages during differentiation (Western blotting); format: cell-based; conditions: for ACAT-1 protein expression vs control cells: 0.6 nM
Procedure: In the Examples below, monocytes were prepared from human peripheral blood and cultured for 7 days so as to have differentiated into macrophages. At such time, salusin-α (0 to 10 nM) and salusin-β (0 to 10 nM) were simultaneously added thereto, and the effects of salusin were examined.
Culture of monocytes obtained from human peripheral blood was performed by a known method. Isolated monocytes were cultured with the addition of RPMI-1640 (15 mL) and then the floating monocytes were subjected to cell counting with a blood cell counting chamber. The cells were seeded on a 6-cm dish so as to result in 4×10^6 cells/2 mL. The monocytes were kept warm at 37° C. in the presence of 5% CO2 for 1 hour such that the cells were allowed to adhere to the dish. The medium was substituted with RPMI-1640 containing 10% human serum, followed by culture for 7 days. The medium was changed every 3 days.
ACAT-1 is an endoplasmic reticulum enzyme that converts intracellular free cholesterol into cholesterol ester. The ACAT-1 gene is important for foaming of macrophages. In order to examine effects of salusin-α and salusin-β on the ACAT-1 expression, the ACAT-1 protein expression was examined by Western blotting.
(§3) Monocyte-derived macrophages that had been cultured for 7 days were washed with PBS 3 times, followed by solubilization with the addition of 10% SDS (sodium dodecyl sulfate) (100 μL) to each dish. Each cell extraction solution was scooped up with a cell scraper, followed by pulverization with the use of a 1-mL TERUMO syringe and a 23-G injection needle for fragmentation (shearing). The resultant was centrifuged at 15,000 rpm for 3 minutes (Himac CF15D2 high-speed micro refrigerated centrifuge; Hitach, Ltd.). The supernatant protein concentration was assayed by the bicinchoninic acid (BCA) method (Pierce) and used as a cell extraction solution for Western blotting.
For ACAT-1 protein detection, an anti-human ACAT-1 polyclonal antibody (DM10 donated from Dr. Chang, Dartmouth Medical School) [Chang CCY et al., J Biol Chem. 1995; 270: 29532-29540] prepared by immunizing a rabbit was used as a primary antibody (final concentration: 0.5 μg/mL) for a reaction on a transfer membrane at room temperature for 1 hour. The transfer membrane was washed with PBS-0.1% Tween 20, followed by a reaction with a secondary antibody (anti-rabbit IgG antibody: anti-rabbit IgG donkey antibody conjugated with horseradish peroxidase (HRP) (GE Healthcare Bio-Science)) at room temperature for 1 hour. For a secondary antibody, a stock solution (0.5 μL) was diluted 10,000-fold with PBS-0.1% Tween 20 (5 mL), and the resultant was used. Washing was carried out with PBS-0.1% Tween 20, followed by ACAT-1 protein detection with the use of Lumi-Light Plus (PerkinElmer Life Sciences).
Human peripheral blood monocytes (4×10^6 cells/6-cm dish) were cultured for 7 days in an RPMI-1640 medium (2 mL) containing 10% human serum so as to differentiate into macrophages. In order to examine the salusin dose-dependent effects on the ACAT-1 protein expression, salusin-α or salusin-β was added to the medium at a concentration of 0, 0.2, 0.4, 0.6, 0.8, or 1.0 nM at the beginning of culture. On Day 7 of culture, macrophage cells differentiated from monocytes were washed with PBS and then solubilized in 10% SDS (100 μL), followed by Western blotting with the use of an ACAT-1-specific antibody. […]

[2] = tested on: ATP-binding cassette transporter A1 (ABCA-1) protein expression; assay: ABCA-1 protein expression in human monocyte-derived macrophages (Western blotting); format: cell-based; conditions: 0, 0.2, 0.4, 0.6, 0.8, or 1.0 nM during 7-day culture
Procedure: as §3
For ABCA-1 protein detection, a reaction with an anti-human ABCA-1 antibody was carried out on a transfer membrane at room temperature for 1 hour. For a primary antibody (anti-human ABCA-1 rabbit polyclonal antibody (Funakoshi Corporation)), a stock solution (5 μL) was diluted 1,000-fold with PBS-0.1% Tween 20 (5 mL), and the diluent was used. The transfer membrane was washed with PBS-0.1% Tween 20. Then, a reaction with a secondary antibody (anti-rabbit IgG antibody: anti-rabbit IgG donkey antibody conjugated with horseradish peroxidase (HRP) (GE Healthcare Bio-Science)) was carried out at room temperature for 1 hour. […]

For “salusin-β: peptide (SEQ ID NO: 3) comprising 20 amino acid residues, generated by processing from preprosalusin (AIFIFIRWLLKLGHHGRAPP; listed as Homo sapiens) [reference compound]”, the “ACAT1 protein expression relative to control level” value (ACAT1; 0.6 nmol/kg/h, range given jointly for CD36, SR-A, ACAT1) was 1.5 to 2.8 times, the “SR-A protein expression relative to control level” value (SR-A; 0.6 nmol/kg/h, range given jointly for CD36, SR-A, ACAT1, P<0.05) was 1.5 to 2.8 times and the “ACAT-1 protein expression level relative to control” value ([1]; 0.6 nM (peak level), added at beginning of 7-day culture, attenuated above 0.6 nM) was 2.1 times. For the same substance, the “ACAT-1 protein expression vs control cells” value ([1]; Day 5 or later) was “significantly increased” and the ABCA-1 protein expression [2] was “no significant changes”.

For “salusin-α: peptide (SEQ ID NO: 1) comprising 28 amino acid residues, generated by processing from preprosalusin (SGALPPAPAAPRPALRAQRAGPAGPGAK; listed as Homo sapiens)”, the “ACAT1 protein expression relative to initial level” value (ACAT1; salusin-α 0.6 nmol/kg/h) was “approximately half”, the SR-A protein expression (SR-A; salusin-α 0.6 nmol/kg/h) was “did not influence” and the “inhibition of ACAT-1 protein expression” value ([1]; 0 to 1.0 nM added at beginning of 7-day culture, concentration-dependent) was “approximately 40%”. For the same substance, the “ACAT-1 protein expression vs control cells” value ([1]; Day 1, 3, or 5 after seeding) was “not found to significantly differ”, the “ACAT-1 protein expression vs control cells” value ([1]; Day 7) was “significantly inhibited” and the ABCA-1 protein expression [2] was “no significant changes”.
